Test results from US20240199692A1 (priority 2019, published 2024).
*1 amine or outer side, *2 acyl side, *3 side chain or, on linkers, in order; H or OH if unused. Where a SMILES comes first, the peptide text is derived from it. Bridges are numbered along the chain shown (N, C = ends). [ ]: non-standard residue; d: D form. The star is where a group is joined. Phenylsulfonyl(4-anisamido) = COc1ccc(C(=O)Nc2ccc(S(=O)(=O)*)cc2)cc1; Benzoyl(4-(4-EtNHCO-PhO)) = CCNC(=O)c1ccc(Oc2ccc(C(=O)*)cc2)cc1; Benzoyl(4-O-C6H4-4-CONHMe) = CNC(=O)c1ccc(Oc2ccc(C(=O)*)cc2)cc1; Benzenesulfonyl(4-OPh) = O=S(=O)(c1ccc(Oc2ccccc2)cc1)*; X12 = O=S(=O)(c1ccc(-c2cn(-c3ccccc3)nn2)cc1)*; X10 = NC(=O)c1ccc(-c2ccc(S(=O)(=O)*)cc2)cc1; X15 = CC(=O)c1ccc(-c2ccc(S(=O)(=O)*)cc2)cc1; Benzoyl(4-OPh) = O=C(c1ccc(Oc2ccccc2)cc1)*; X9 = O=C(NCCCO)c1ccc(Oc2ccc(C(=O)*)cc2)cc1; d(γGlu) = O=C(O)[C@@H](CCC(=O)[*:2])N[*:1]; d(βAsp) = O=C(O)[C@@H](CC(=O)[*:2])N[*:1]; X7 = O=S(=O)(c1ccc(-c2ccc(OCCO)cc2)cc1)*; NMeY = CN[C@@H](Cc1ccc(O)cc1)C(=O)O; NMeGABA = CN(CCCC(=O)[*:2])[*:1]; NMeI = CC[C@H](C)[C@H](NC)C(=O)O; NMeE = CN[C@@H](CCC(=O)O)C(=O)O; NMeN = CN[C@@H](CC(N)=O)C(=O)O; NMeM = CN[C@@H](CCSC)C(=O)O; NMeV = CN[C@H](C(=O)O)C(C)C; β3hP = O=C(O)C[C@@H]1CCCN1; Dab = NCC[C@H](N)C(=O)O; Dap = NC[C@H](N)C(=O)O; Ahx = NCCCCCC(=O)O; Ava = NCCCCC(=O)O; GABA = NCCCC(=O)O

What follows are molecules tested against T1, MMP2 (Homo sapiens, UniProt P08253) (assay: Inhibitory effects on human MMP2 (Method 1), enzyme assay with MOCAc-Pro-Leu-Gly-Leu-A2pr(Dnp)-Ala-Arg-NH2 substrate, 96-well). Details: Test Example No. 1-1 (Method 1, 96-well microplate); read-out: Human MMP2, IC50.
T1 sequence (P08253 110-660): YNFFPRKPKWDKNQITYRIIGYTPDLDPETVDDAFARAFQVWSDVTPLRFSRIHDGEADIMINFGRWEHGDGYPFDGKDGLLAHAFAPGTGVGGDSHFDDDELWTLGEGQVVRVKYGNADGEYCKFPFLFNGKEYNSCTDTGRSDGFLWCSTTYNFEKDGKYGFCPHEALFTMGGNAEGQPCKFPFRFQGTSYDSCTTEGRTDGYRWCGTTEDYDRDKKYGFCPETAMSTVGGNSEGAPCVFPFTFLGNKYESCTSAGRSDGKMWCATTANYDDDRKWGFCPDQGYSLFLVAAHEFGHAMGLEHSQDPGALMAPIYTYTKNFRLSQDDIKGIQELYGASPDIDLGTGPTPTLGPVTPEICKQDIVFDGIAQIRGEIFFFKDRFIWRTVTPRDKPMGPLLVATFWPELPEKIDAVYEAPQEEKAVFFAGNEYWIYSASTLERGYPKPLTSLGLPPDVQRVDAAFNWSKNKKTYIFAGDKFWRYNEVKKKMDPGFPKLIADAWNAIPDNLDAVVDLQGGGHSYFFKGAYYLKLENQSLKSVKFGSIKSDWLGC
Format: biochemical
Experimental: In a reaction solution [50 mmol/L Tris-HCl (pH 7.5), 150 mmol/L NaCl, 10 mmol/L CaCl2, 0.05% Brij L23], 100 μg/mL human recombinant MMP2 enzyme and 1 mmol/L 4-Aminophenylmercuric acetate were mixed together, and reacted at 37° C. for 60 minutes. The human MMP2 activated through the reaction was poured into a 96-well microplate to reach a final concentration of 0.7 or 7 ng/mL.

IC50 [nM] | SMILES
1.7 | CCNC(=O)c1ccc(Oc2ccc(C(=O)NCCCCC(=O)N[C@@H](CCCCN)C(=O)N[C@@H](CC(=O)O)C(=O)N[C@@H](CCN)C(=O)N[C@@H](CC(C)C)C(=O)N(C)[C@H](C(=O)N3CCC[C@H]3CC(N)=O)[C@@H](C)CC)cc2)cc1 [Compound 193] ({Benzoyl(4-(4-EtNHCO-PhO))-Ava}-KD[Dab]L[NMeI][β3hP]-NH2; N-terminus assumed)
0.094 | CC[C@H](C)[C@@H](C(=O)N1CCC[C@H]1CC(N)=O)N(C)C(=O)[C@H](CC(C)C)NC(=O)[C@H](CCN)NC(=O)C[C@@H](NS(=O)(=O)c1ccc(NC(=O)c2ccc(OC)cc2)cc1)C(=O)O [Compound 694] ({Phenylsulfonyl(4-anisamido)-d(βAsp)}-[Dab]L[NMeI][β3hP]-NH2; N-terminus assumed)
0.14 | CC(C)C[C@H](NC(=O)[C@H](CN)NC(=O)C[C@@H](NS(=O)(=O)c1ccc(-c2ccc(OCCO)cc2)cc1)C(=O)O)C(=O)N(C)[C@@H](CCC(=O)O)C(=O)N1CCC[C@H]1CC(N)=O [Compound 638] ({X7-d(βAsp)}-[Dap]L[NMeE][β3hP]-NH2; N-terminus assumed)
0.13 | CC[C@H](C)[C@@H](C(=O)N1CCC[C@H]1CC(N)=O)N(C)C(=O)[C@H](CC(C)C)NC(=O)[C@H](C)NC(=O)C[C@@H](NS(=O)(=O)c1ccc(-c2ccc(C(C)=O)cc2)cc1)C(=O)O [Compound 634, N^2-(4′-acetyl[1,1′-biphenyl]-4-sulfonyl)-N-[(2S)-1-({(2S)-1-[{(2S,3S)-1-[(2S)-2-(2-amino-2-oxoethyl)pyrrolidin-1-yl]-3-methyl-1-oxopentan-2-yl}(methyl)amino]-4-methyl-1-oxopentan-2-yl}amino)-1-oxopropan-2-yl]-D-asparagine] ({X15-d(βAsp)}-AL[NMeI][β3hP]-NH2)
0.49 | CC(C)C[C@H](NC(=O)[C@H](CCN)NC(=O)[C@H](CC(=O)O)NC(=O)[C@H](CC(N)=O)NC(=O)CCCCNC(=O)c1ccc(Oc2ccc(C(=O)NCCCO)cc2)cc1)C(=O)N(C)[C@@H](CCC(=O)O)C(=O)N1CCC[C@H]1CC(N)=O [Compound 182] ({X9-Ava}-ND[Dab]L[NMeE][β3hP]-NH2; N-terminus assumed)
0.49 | CC[C@H](C)[C@@H](C(=O)N1CCC[C@H]1CC(N)=O)N(C)C(=O)[C@H](CC(C)C)NC(=O)[C@H](CCN)NC(=O)[C@H](CC(=O)O)NC(=O)[C@H](NC(=O)CCCCNS(=O)(=O)c1ccc(Oc2ccccc2)cc1)[C@H](C)O [Compound 85] ({Benzenesulfonyl(4-OPh)-Ava}-[dT]D[Dab]L[NMeI][β3hP]-NH2; N-terminus assumed)
0.61 | CNC(=O)c1ccc(Oc2ccc(C(=O)NCCCCC(=O)N[C@@H](CCCCN)C(=O)N[C@@H](CC(=O)O)C(=O)N[C@@H](CCN)C(=O)N[C@@H](CC(C)C)C(=O)N(C)[C@@H](CCC(=O)O)C(=O)N3CCC[C@H]3CC(N)=O)cc2)cc1 [Compound 184] ({Benzoyl(4-O-C6H4-4-CONHMe)-Ava}-KD[Dab]L[NMeE][β3hP]-NH2; N-terminus assumed)
0.83 | CC[C@H](C)[C@@H](C(=O)N1CCC[C@H]1CC(N)=O)N(C)C(=O)[C@H](CC(C)C)NC(=O)[C@H](C)NC(=O)C[C@@H](NS(=O)(=O)c1ccc(-c2ccc(C(N)=O)cc2)cc1)C(=O)O [Compound 635] ({X10-d(βAsp)}-AL[NMeI][β3hP]-NH2; N-terminus assumed)
1.7 | CCNC(=O)c1ccc(Oc2ccc(C(=O)NCCCCC(=O)N[C@@H](CCCNC(=N)N)C(=O)N[C@@H](CC(=O)O)C(=O)N[C@@H](CCN)C(=O)N[C@@H](CC(C)C)C(=O)N(C)[C@@H](CCC(=O)O)C(=O)N3CCC[C@H]3CC(N)=O)cc2)cc1 [Compound 196] ({Benzoyl(4-(4-EtNHCO-PhO))-Ava}-RD[Dab]L[NMeE][β3hP]-NH2; N-terminus assumed)
0.21 | CNC(=O)c1ccc(Oc2ccc(C(=O)NCCCC(=O)N[C@@H](CC(N)=O)C(=O)N[C@@H](CC(=O)O)C(=O)N[C@@H](C)C(=O)N[C@@H](CC(C)C)C(=O)N[C@@H](CCSC)C(=O)N3CCC[C@H]3C(N)=O)cc2)cc1 [Compound 177, N^2-(4-{4-[4-(methylcarbamoyl)phenoxy]benzamido}butanoyl)-L-asparaginyl-L-α-aspartyl-L-alanyl-L-leucyl-L-methionyl-L-prolinamide] ({Benzoyl(4-O-C6H4-4-CONHMe)-GABA}-NDALMP-NH2)
0.34 | CC[C@H](C)[C@@H](C(=O)N1CCC[C@H]1CC(N)=O)N(C)C(=O)[C@H](CC(C)C)NC(=O)[C@H](CCN)NC(=O)CC[C@@H](NS(=O)(=O)c1ccc(-c2cn(-c3ccccc3)nn2)cc1)C(=O)O [Compound 608, N-[(2S)-4-amino-1-({(2S)-1-[{(2S,3S)-1-[(2S)-2-(2-amino-2-oxoethyl)pyrrolidin-1-yl]-3-methyl-1-oxopentan-2-yl}(methyl)amino]-4-methyl-1-oxopentan-2-yl}amino)-1-oxobutan-2-yl]-N^2-[4-(1-phenyl-1H-1,2,3-triazol-4-yl)benzene-1-sulfonyl]-D-glutamine] ({X12-d(γGlu)}-[Dab]L[NMeI][β3hP]-NH2)
3.7 | CCNC(=O)c1ccc(Oc2ccc(C(=O)NCCCCCC(=O)N[C@@H](CCCCN)C(=O)N[C@@H](CC(=O)O)C(=O)N[C@@H](CCN)C(=O)N[C@@H](CC(C)C)C(=O)N(C)[C@@H](CCC(=O)O)C(=O)N3CCC[C@H]3CC(N)=O)cc2)cc1 [Compound 194] ({Benzoyl(4-(4-EtNHCO-PhO))-Ahx}-KD[Dab]L[NMeE][β3hP]-NH2; N-terminus assumed)

SMILES | IC50 [nM]
CC[C@H](C)[C@@H](C(=O)N1CCC[C@H]1C(N)=O)N(C)C(=O)[C@H](CC(C)C)NC(=O)[C@H](C)NC(=O)[C@H](CC(=O)O)NC(=O)[C@H](CCSC)N(C)C(=O)CCCNC(=O)c1ccc(Oc2ccccc2)cc1 [Compound 122] ({Benzoyl(4-OPh)-GABA}-[NMeM]DAL[NMeI]P-NH2; N-terminus assumed) | 0.16
CC[C@H](C)[C@@H](C(=O)N1CCC[C@H]1C(N)=O)N(C)C(=O)[C@H](CC(C)C)NC(=O)[C@H](C)NC(=O)[C@H](CC(=O)O)NC(=O)[C@H](Cc1ccc(O)cc1)N(C)C(=O)CCCNC(=O)c1ccc(Oc2ccccc2)cc1 [Compound 129] ({Benzoyl(4-OPh)-GABA}-[NMeY]DAL[NMeI]P-NH2) | 0.46
CC[C@H](C)[C@@H](C(=O)N1CCC[C@H]1C(N)=O)N(C)C(=O)[C@H](CC(C)C)NC(=O)[C@H](CCN)NC(=O)[C@H](CC(=O)O)NC(=O)[C@H](CCSC)N(C)C(=O)CCCNC(=O)c1ccc(Oc2ccccc2)cc1 [Compound 134] ({Benzoyl(4-OPh)-GABA}-[NMeM]D[Dab]L[NMeI]P-NH2) | 2
CC[C@H](C)[C@@H](C(=O)N1CCC[C@H]1C(N)=O)N(C)C(=O)[C@H](CC(C)C)NC(=O)[C@H](CCN)NC(=O)[C@H](CC(=O)O)NC(=O)[C@H](C(C)C)N(C)C(=O)CCCNC(=O)c1ccc(Oc2ccccc2)cc1 [Compound 135] ({Benzoyl(4-OPh)-GABA}-[NMeV]D[Dab]L[NMeI]P-NH2; N-terminus assumed) | 9.3
CC[C@H](C)[C@@H](C(=O)N1CCC[C@H]1C(N)=O)N(C)C(=O)[C@H](CC(C)C)NC(=O)[C@H](C)NC(=O)[C@H](CC(=O)O)NC(=O)[C@H](CC(N)=O)N(C)C(=O)CCCN(C)C(=O)c1ccc(Oc2ccccc2)cc1 [Compound 103] ({Benzoyl(4-OPh)}-[NMeGABA][NMeN]DAL[NMeI]P-NH2; N-terminus assumed) | 0.67
CC[C@H](C)[C@@H](C(=O)N1CCC[C@H]1CC(N)=O)N(C)C(=O)[C@H](CC(C)C)NC(=O)[C@H](CCN)NC(=O)[C@H](CC(=O)O)NC(=O)[C@H](CC(N)=O)N(C)C(=O)CCCNC(=O)c1ccc(Oc2ccccc2)cc1 [Compound 110] ({Benzoyl(4-OPh)-GABA}-[NMeN]D[Dab]L[NMeI][β3hP]-NH2; N-terminus assumed) | 0.37
CC[C@H](C)[C@@H](C(=O)N1CCC[C@H]1C(N)=O)N(C)C(=O)[C@H](CC(C)C)NC(=O)[C@H](CCN)NC(=O)[C@H](CC(=O)O)NC(=O)[C@H](CC(N)=O)N(C)C(=O)CCCNC(=O)c1ccc(Oc2ccccc2)cc1 [Compound 111] ({Benzoyl(4-OPh)-GABA}-[NMeN]D[Dab]L[NMeI]P-NH2; N-terminus assumed) | 0.96

Same assay, conditions: Test Example No. 1-1 (Method 1, 96-well); read-out: Human MMP2, IC50

IC50 [nM] | SMILES
1.7 | CC[C@H](C)[C@@H](C(=O)N1CCC[C@H]1CC(N)=O)N(C)C(=O)[C@@H]1CCCCNC(=O)CNC(=O)CC[C@H](NC(=O)CCCNS(=O)(=O)c2ccc(Oc3ccccc3)cc2)C(=O)N[C@@H](CC(=O)O)C(=O)N[C@@H](C)C(=O)N1 [Compound 892, [(2S,5S,8S,20S)-8-[{(2S,3S)-1-[(2S)-2-(2-amino-2-oxoethyl)pyrrolidin-1-yl]-3-methyl-1-oxopentan-2-yl}(methyl)carbamoyl]-5-methyl-3,6,14,17,21-pentaoxo-20-{4-[(4-phenoxybenzene-1-sulfonyl)amino]butanamido}-1,4,7,13,16-pentaazacyclohenicosan-2-yl]acetic acid] ({Benzenesulfonyl(4-OPh)-GABA}-EDAK[NMeI][β3hP]-NH2; linker 1-4 via G)
